The text below walks through data of US20140163026A1, “8-ETHYL-6-(ARYL)PYRIDO[2,3-D]PYRIMIDIN-7(8H)-ONES FOR THE TREATMENT OF NERVOUS SYSTEM DISORDERS AND CANCER” (Afraxis Holdings, Inc., priority 2011, published 2014).

Assay [1] concerns NF2−/− mesothelioma cells (NCI-H226). In words: Growth inhibition of NF2 deficient cells (CellTiter-Glo). It is filed as cell-based. The conditions noted are these: 0 μM-30 μM, 72 hours, FIG. 7. The protocol:
(§1) NF2 deficient cell lines were cultured in the appropriate medium. Once enough cells have propagated, plates of all adherent lines were seeded at 5,000-10,000 cells/well (depending on cell line) in a total volume of 50 μL, and plates of all suspension lines at 10,000-20,000 cells/well (depending on cell line) in a total volume of 50 μL. Plates were placed in a humidified cell culture incubator overnight to allow adherent cells to attach.
(§2) 10 mM stocks of each PAK inhibitor compound in DMSO were prepared. Dilutions were performed with media to provide 1% DMSO 2× stock solutions of each PAK inhibitor compound.
50 μL of all PAK inhibitor compound 2× stocks were added to appropriate wells already containing 50 μL of cells and medium to expose cells to the final concentrations of compounds required. 50 μL of media was added to media and cell control wells and 50 μL of mix to vehicle control wells. At the same time as drug exposure, a CTG (CellTiter-Glo Assay) assay was performed on the 0 hr plate to obtain a 0 hr count. Cells were exposed to PAK inhibitor compounds or a DMSO control for 72 hours. Following the 72 hour exposure period, all remaining plates were assayed using CTG.
At the end of the 72 hour exposure period, plates were removed for a CTG assay from 37° C., 5% CO2 incubator and place on the bench at room temperature for 30 mins. 100 μL CTG reagent was added to each well, mixed for 2 minutes, followed by a further 10 minute incubation at room temperature. Luminescence for each well was determined.
Growth inhibition percent was calculated using the following equation: (Growth %=(Sample Value−T0Ave)/(Max−T0Ave)*100).
NF2^−/− mesothelioma cells (e.g., NCI-H226 cells) were treated with varying concentrations of a PAK inhibitor compound disclosed in Examples 33, 84, or 122.
(In general: Cellular ATP, detected with luciferase, serves as a proxy for viable cell number.)

A further assay deals with Nf2−/− SC4 cells. The assay is described as above. It is filed as cell-based, mouse. The conditions noted are these: 1 uM concentration for 72 hours, FIG. 4. The protocol: as §1, §2
50 μL of all PAK inhibitor compound 2× stocks were added to appropriate wells already containing 50 μL of cells and medium to expose cells to the final concentrations of compounds required. 50 μL of media was added to media and cell control wells and 50 μL of mix to vehicle control wells. At the same time as drug exposure, a CTG (CellTiter-Glo Assay) assay was performed on the 0 hr plate to obtain a 0 hr count. […]
At the end of the 72 hour exposure period, plates were removed for a CTG assay from 37° C., 5% CO2 incubator and place on the bench at room temperature for 30 mins. […] Luminescence for each well was determined.
Growth inhibition percent was calculated using the following equation: (Growth %=(Sample Value−T0Ave)/(Max−T0Ave)*100). […]

In assay [2] the test system is Nf2−/− SC4 cells transplanted into the sciatic nerve sheath of NOD/SCID mice. Kind of assay: Orthotopic NF2 deficient schwannoma mouse model, tumor weight. It is filed as in vivo. The conditions noted are these: intraneural Nf2−/− cells, FIG. 5. The source says: The NF2 protein is absent in ˜100% of sporadic schwannomas. Thus, an NF2 deficient-schwanoma mouse model was generated and used to evaluate treatment of sporadic schwannomas with a PAK inhibitor compound disclosed herein.
Murine Nf2^−/− cells may be generated by various means. For example, NF2^−/− cells may be generated by administering an shRNA or siRNA targeting an Nf2 gene, thereby disrupting the Nf2 gene. In another example, NF2^−/− cells may be generated by using a Cre recombinase.
Nf2^−/− SC4 cells may be generated by using a Cre recombinase. Pure populations of embryonic SC4 cells were isolated from Nf 2^loxP/loxP− mice at about embryonic day 13.5. […]
Nf2^−/− cells (e.g., Nf2^−/− SC4 control cells) were transduced by lentiviruses carrying pLuc-mCherry and sorted by FACS. […] Tumor progression was monitored weekly by bioluminescence imaging (BLI) according to the manufacturer's instructions on an IVIS-200 system. The mice were sacrificed and the tumors from the vehicle control treated and PAK inhibitor treated mice were measured.
NF2^−/− cells (e.g., Nf2^−/− SC4 control cells) were transduced by lentiviruses carrying pLuc-mCherry and sorted by FACS. […] Tumor progression was monitored weekly by bioluminescence imaging (BLI) according to the manufacturer's instructions on an IVIS-200 system. […]
At various time points, treatment efficacy was determined. […]

In the case of `CCn1c(=O)c(-c2ccc(-c3cncs3)cc2Cl)cc2cnc(Nc3ccc(N4CCN(C)CC4)cc3)nc21` [Example 84], in assay [1], the “growth (%) with increasing concentration” value is recorded as “the growth (%) of the cells reduced”. Besides, in the assay with Nf2−/− SC4 cells, the “cell number compared to DMSO control treated cells” value is “reduction in cell number”. Further, in assay [2], the “average tumor weight versus vehicle control treated mice” value is given as “less than the average tumor weight of the vehicle control treated mice”.
